Laboratory results reported in publication PMC10797590, “Exploring Rigid and Flexible Scaffolds to Develop Potent Glucuronic Acid Glycodendrimers for Dengue Virus Inhibition” (Bioconjugate Chemistry, 2023).

How the values were obtained:
[1] = target: T1, dengue virus envelope protein 2 (DENV2) (Dengue virus type 2, UniProt P29990); test: SPR binding study of GlcA glycodendrimers on immobilized DENV2 (Biacore 3000, CM4 chip); design: species or system dengue virus serotype 2; details: for SPR binding response: GD flowed at 100 μM over immobilized DENV2; for Kd: read-out: dissociation constant KD, steady-state analysis of SPR, 1:1 Langmuir model, immobilized DENV2, 25 °C
T1 construct: Dengue virus envelope protein 2 (DENV2) was purchased from the Native Antigen Company; purchased Native Antigen Company
Procedure: In order to evaluate the ability of GDs 4a–f, 9a–c, and 12a–c to interact with dengue virus envelope protein 2 (DENV2), an SPR binding study was carried out.
Compounds 4a–f, 9a–c, and 12a–c were flowed on immobilized DENV2 at a concentration of 100 μM (Figure 1).
Dengue virus envelope protein 2 (DENV2) was purchased from the Native Antigen Company. SPR sensor chips CM4 (carboxymethylated dextran) and other reagents used in SPR experiments were purchased from GE Healthcare. SPR experiments were performed with a Biacore 3000.
SPR experiments were performed at 25 °C with a Biacore 3000 (GE Healthcare). PBST (10 mm phosphate, pH 7.40, 150 mm NaCl, and 0.005% v/v surfactant P20) was used as a running buffer. A solution with the dengue virus serotype 2 protein (DENV2) was adjusted to 20 μg/mL in 10 mM citrate pH 4.00 buffer, and the protein was immobilized in flow cell 1 of a CM4 sensor chip by following the amine coupling method according to the manufacturer’s instructions. Prior to injection over the sensor chip, DENV2 was mixed with a 4-fold molar excess of HS, for 30 min at 4 °C, to protect the GAG-binding domains of the envelope protein. The immobilization response was 2000 RU, and then, the sensor surface was washed with 1 M NaCl to remove the bound HS. Sensor chip flow cell 2 was activated, blocked, and used as a reference surface. Blank samples and concentration series were injected on a CM4 chip at a flow rate of 40 μL/min for 180 s, and dissociation was registered for 180 s.
Initially, compounds 4a–f, 9a–c, and 12a–c were flowed on the immobilized DENV2 at a 100 μM concentration. Then different concentration of GDs (5–125 μM) were flowed on the immobilized DENV2 (compound 12b: 5–125 μM; 12c: 5–150 μM; 9b: 25–250 μM; 4c: 25-250 μM).25–250 μM). Data processing and analysis were carried out with Biaevaluation v.4.1.1 (GE Healthcare).
All signals were blank-subtracted, reference-corrected, and globally adjusted to an adequate kinetic model to obtain binding parameters. […] Instead, a steady-state analysis kinetic analysis was carried out assuming the 1:1 Langmuir model. The value of KA is obtained by fitting a plot of RU in the plateau region against the GD concentration, which generates the following equations. [drawing 1] [drawing 2] [drawing 3] [drawing 4] KD is calculated as the inverse of KA (KD = 1/KA).

DENV2 envelope protein = details: SPR, same experimental conditions as current study; cited from earlier work

Compound | SPR binding response [1] | Kd [1] | fold difference of KD of heparin versus GDs 12b and 12c ([1]; heparin KD 56 nM vs 12b and 12c KD) | Kd (DENV2 envelope protein)
O=C(O)[C@H]1O[C@@H](OCCCn2cc(COc3cc(COCCN(CCOCc4cc(OCc5cn(CCCO[C@@H]6O[C@H](C(=O)O)[C@@H](O)[C@H](O)[C@H]6O)nn5)cc(OCc5cn(CCCO[C@@H]6O[C@H](C(=O)O)[C@@H](O)[C@H](O)[C@H]6O)nn5)c4)CCOCc4cc(OCc5cn(CCCO[C@@H]6O[C@H](C(=O)O)[C@@H](O)[C@H](O)[C@H]6O)nn5)cc(OCc5cn(CCCO[C@@H]6O[C@H](C(=O)O)[C@@H](O)[C@H](O)[C@H]6O)nn5)c4)cc(OCc4cn(CCCO[C@@H]5O[C@H](C(=O)O)[C@@H](O)[C@H](O)[C@H]5O)nn4)c3)nn2)[C@H](O)[C@@H](O)[C@@H]1O [12b] | 203.4 RU | 487 nM |  | 
O=C(O)[C@H]1O[C@@H](OCCCn2cc(COc3cc(COc4cc(COCc5cc(OCc6cc(OCc7cn(CCCO[C@@H]8O[C@H](C(=O)O)[C@@H](O)[C@H](O)[C@H]8O)nn7)cc(OCc7cn(CCCO[C@@H]8O[C@H](C(=O)O)[C@@H](O)[C@H](O)[C@H]8O)nn7)c6)cc(OCc6cc(OCc7cn(CCCO[C@@H]8O[C@H](C(=O)O)[C@@H](O)[C@H](O)[C@H]8O)nn7)cc(OCc7cn(CCCO[C@@H]8O[C@H](C(=O)O)[C@@H](O)[C@H](O)[C@H]8O)nn7)c6)c5)cc(OCc5cc(OCc6cn(CCCO[C@@H]7O[C@H](C(=O)O)[C@@H](O)[C@H](O)[C@H]7O)nn6)cc(OCc6cn(CCCO[C@@H]7O[C@H](C(=O)O)[C@@H](O)[C@H](O)[C@H]7O)nn6)c5)c4)cc(OCc4cn(CCCO[C@@H]5O[C@H](C(=O)O)[C@@H](O)[C@H](O)[C@H]5O)nn4)c3)nn2)[C@H](O)[C@@H](O)[C@@H]1O [9c] | 0.0 RU |  |  | 
O=C(O)[C@H]1O[C@@H](OCCCn2cc(COc3cc(COc4cc(OCc5cc(OCc6cn(CCCO[C@@H]7O[C@H](C(=O)O)[C@@H](O)[C@H](O)[C@H]7O)nn6)cc(OCc6cn(CCCO[C@@H]7O[C@H](C(=O)O)[C@@H](O)[C@H](O)[C@H]7O)nn6)c5)cc(OCc5cc(OCc6cn(CCCO[C@@H]7O[C@H](C(=O)O)[C@@H](O)[C@H](O)[C@H]7O)nn6)cc(OCc6cn(CCCO[C@@H]7O[C@H](C(=O)O)[C@@H](O)[C@H](O)[C@H]7O)nn6)c5)c4)cc(OCc4cn(CCCO[C@@H]5O[C@H](C(=O)O)[C@@H](O)[C@H](O)[C@H]5O)nn4)c3)nn2)[C@H](O)[C@@H](O)[C@@H]1O [4d] | 0.3 RU |  |  | 
O=C(O)[C@H]1O[C@@H](OCCCn2cc(COc3cc(COCc4cc(OCc5cn(CCCO[C@@H]6O[C@H](C(=O)O)[C@@H](O)[C@H](O)[C@H]6O)nn5)c(OCc5cn(CCCO[C@@H]6O[C@H](C(=O)O)[C@@H](O)[C@H](O)[C@H]6O)nn5)c(OCc5cn(CCCO[C@@H]6O[C@H](C(=O)O)[C@@H](O)[C@H](O)[C@H]6O)nn5)c4)cc(OCc4cn(CCCO[C@@H]5O[C@H](C(=O)O)[C@@H](O)[C@H](O)[C@H]5O)nn4)c3OCc3cn(CCCO[C@@H]4O[C@H](C(=O)O)[C@@H](O)[C@H](O)[C@H]4O)nn3)nn2)[C@H](O)[C@@H](O)[C@@H]1O [9b] | 68.5 RU | 1750 nM |  | 
O=C(O)[C@H]1O[C@@H](OCCCn2cc(COc3cc(COCC(COCc4cc(OCc5cn(CCCO[C@@H]6O[C@H](C(=O)O)[C@@H](O)[C@H](O)[C@H]6O)nn5)cc(OCc5cn(CCCO[C@@H]6O[C@H](C(=O)O)[C@@H](O)[C@H](O)[C@H]6O)nn5)c4)(COCc4cc(OCc5cn(CCCO[C@@H]6O[C@H](C(=O)O)[C@@H](O)[C@H](O)[C@H]6O)nn5)cc(OCc5cn(CCCO[C@@H]6O[C@H](C(=O)O)[C@@H](O)[C@H](O)[C@H]6O)nn5)c4)COCc4cc(OCc5cn(CCCO[C@@H]6O[C@H](C(=O)O)[C@@H](O)[C@H](O)[C@H]6O)nn5)cc(OCc5cn(CCCO[C@@H]6O[C@H](C(=O)O)[C@@H](O)[C@H](O)[C@H]6O)nn5)c4)cc(OCc4cn(CCCO[C@@H]5O[C@H](C(=O)O)[C@@H](O)[C@H](O)[C@H]5O)nn4)c3)nn2)[C@H](O)[C@@H](O)[C@@H]1O [12c] | 153 RU | 624 nM |  | 
O=C(O)[C@H]1O[C@@H](OCCCn2cc(COc3cc(OCc4cn(CCCO[C@@H]5O[C@H](C(=O)O)[C@@H](O)[C@H](O)[C@H]5O)nn4)cc(OCc4cn(CCCO[C@@H]5O[C@H](C(=O)O)[C@@H](O)[C@H](O)[C@H]5O)nn4)c3)nn2)[C@H](O)[C@@H](O)[C@@H]1O [4c] | 60.8 RU |  |  | 
O=C(O)[C@H]1O[C@@H](OCCCn2cc(CN(Cc3cn(CCCO[C@@H]4O[C@H](C(=O)O)[C@@H](O)[C@H](O)[C@H]4O)nn3)Cc3cn(CCCO[C@@H]4O[C@H](C(=O)O)[C@@H](O)[C@H](O)[C@H]4O)nn3)nn2)[C@H](O)[C@@H](O)[C@@H]1O [12a] | 9.8 RU |  |  | 
O=C(O)[C@H]1O[C@@H](OCCCn2cc(COc3cc(COCc4cc(OCc5cn(CCCO[C@@H]6O[C@H](C(=O)O)[C@@H](O)[C@H](O)[C@H]6O)nn5)cc(OCc5cn(CCCO[C@@H]6O[C@H](C(=O)O)[C@@H](O)[C@H](O)[C@H]6O)nn5)c4)cc(OCc4cn(CCCO[C@@H]5O[C@H](C(=O)O)[C@@H](O)[C@H](O)[C@H]5O)nn4)c3)nn2)[C@H](O)[C@@H](O)[C@@H]1O [9a] | 5.0 RU |  |  | 
heparin [reference compound] |  |  | 8.6–11 fold | 56 nM
O=C(O)[C@H]1O[C@@H](OCCCn2cc(COc3cc4c5cc(OCc6cn(CCCO[C@@H]7O[C@H](C(=O)O)[C@@H](O)[C@H](O)[C@H]7O)nn6)c(OCc6cn(CCCO[C@@H]7O[C@H](C(=O)O)[C@@H](O)[C@H](O)[C@H]7O)nn6)cc5c5cc(OCc6cn(CCCO[C@@H]7O[C@H](C(=O)O)[C@@H](O)[C@H](O)[C@H]7O)nn6)c(OCc6cn(CCCO[C@@H]7O[C@H](C(=O)O)[C@@H](O)[C@H](O)[C@H]7O)nn6)cc5c4cc3OCc3cn(CCCO[C@@H]4O[C@H](C(=O)O)[C@@H](O)[C@H](O)[C@H]4O)nn3)nn2)[C@H](O)[C@@H](O)[C@@H]1O [4e] | 0.0 RU |  |  | 
